Assay results from patent US20030199431A1, “Modified peptide nucleic acid (PNA) molecules” (priority 1999, published 2003).

How the values were obtained:
test culture = assay type: cell-based; details: 37° C., 16 hours
E. coli K12 = assay: Bacterial growth inhibition with PNA 249 (without peptide, FtsZ) and peptide 250, 100% Mueller-Hinton broth (Table 18); assay type: cell-based, Escherichia coli; details: for Growth inhibition effect: low concentration end

| Substance | Growth inhibition (test culture) | Peptide concentration at which the peptide alone may show growth inhibition effect (E. coli K12) | Growth inhibition effect (E. coli K12) |
| --- | --- | --- | --- |
| H-KFFKFFKFFK-ado-TGA CTA GAT GAG-NH2 [PNA 136] | No growth inhibition was detected |  |  |
| H-CG-KLAKALKKLL-NH2 (H-CGKLAKALKKLL-NH2) [PNA 250, peptide alone, also used for PNA 174] |  | above 2500 nM | neither 249 nor 250 alone nor 249 and 250 together show any useful effect |
| H-ado-TTC AAA CAT AGT-NH2 [PNA 249] |  |  | neither 249 nor 250 alone nor 249 and 250 together show any useful effect |
